Data from the NIST ThermoML archive (doi:10.1016/j.tca.2005.01.064).

Columns and labels:
[1] = excess molar enthalpy (molar enthalpy of mixing); xn = mol fraction of the nth substance listed; conditions: 308.15 K, 101.33 kPa, Liquid, Flow calorimetry
[2] = 308.15 K; 101.33 kPa; Liquid; Vibrating tube method

OCCO [1,2-ethanediol] + CCO
[1]
Conditions | excess molar enthalpy [kcal/mol]
x1 = 0.0719 | 0.0526
x1 = 0.1341 | 0.0833
x1 = 0.1886 | 0.103
x1 = 0.2365 | 0.115
x1 = 0.3173 | 0.126
x1 = 0.3826 | 0.131
x1 = 0.4817 | 0.131
x1 = 0.5533 | 0.125
x1 = 0.6502 | 0.115
x1 = 0.7361 | 0.099
x1 = 0.788 | 0.0846
x1 = 0.8479 | 0.0684
x1 = 0.8815 | 0.0565
x1 = 0.9177 | 0.0413
x1 = 0.9371 | 0.0333
x1 = 0.9571 | 0.0229
x1 = 0.9781 | 0.012

OCCOCCO [diethylene glycol]
Conditions | mass density [kg/m3]
[2] | 1105.65

OCCOCCO [diethylene glycol] + CCO
[1]
Conditions | excess molar enthalpy [kcal/mol]
x1 = 0.0434 | 0.0185
x1 = 0.0833 | 0.0319
x1 = 0.1199 | 0.0422
x1 = 0.1537 | 0.0483
x1 = 0.2142 | 0.0582
x1 = 0.2663 | 0.063
x1 = 0.3528 | 0.0668
x1 = 0.4208 | 0.0668
x1 = 0.5216 | 0.0644
x1 = 0.6206 | 0.0565
x1 = 0.6856 | 0.0507
x1 = 0.7658 | 0.0417
x1 = 0.8135 | 0.0353
x1 = 0.8674 | 0.0262
x1 = 0.8973 | 0.0217
x1 = 0.929 | 0.0152
x1 = 0.9632 | 0.00786

CCO [ethanol]
Conditions | mass density [kg/m3]
[2] | 776.41

OCCOCCOCCO [triethylene glycol]
Conditions | mass density [kg/m3]
[2] | 1112.09

OCCOCCOCCO [triethylene glycol] + CCO
[1]
Conditions | excess molar enthalpy [kcal/mol]
x1 = 0.0313 | 0.0319
x1 = 0.0606 | 0.0563
x1 = 0.0883 | 0.077
x1 = 0.1143 | 0.0905
x1 = 0.1623 | 0.111
x1 = 0.2047 | 0.125
x1 = 0.2792 | 0.141
x1 = 0.3405 | 0.145
x1 = 0.4365 | 0.15
x1 = 0.5376 | 0.146
x1 = 0.6078 | 0.145
x1 = 0.6992 | 0.132
x1 = 0.756 | 0.117
x1 = 0.823 | 0.0973
x1 = 0.8613 | 0.0786
x1 = 0.9029 | 0.0595
x1 = 0.949 | 0.0324
